In patent US20220289679A1, “HETEROCYCLIC COMPOUND” (Takeda Pharmaceutical Company Limited, priority 2019, published 2022) one finds inhibition data, which are given here for 22 compounds.

For the assay, the target named is T1, human GCS (glucosylceramide synthase) (Homo sapiens, UniProt Q16739).
T1 construct: made in house; host or cells: Expi293F cells (transient expression; microsome fraction)
T1 sequence (Q16739 1-394): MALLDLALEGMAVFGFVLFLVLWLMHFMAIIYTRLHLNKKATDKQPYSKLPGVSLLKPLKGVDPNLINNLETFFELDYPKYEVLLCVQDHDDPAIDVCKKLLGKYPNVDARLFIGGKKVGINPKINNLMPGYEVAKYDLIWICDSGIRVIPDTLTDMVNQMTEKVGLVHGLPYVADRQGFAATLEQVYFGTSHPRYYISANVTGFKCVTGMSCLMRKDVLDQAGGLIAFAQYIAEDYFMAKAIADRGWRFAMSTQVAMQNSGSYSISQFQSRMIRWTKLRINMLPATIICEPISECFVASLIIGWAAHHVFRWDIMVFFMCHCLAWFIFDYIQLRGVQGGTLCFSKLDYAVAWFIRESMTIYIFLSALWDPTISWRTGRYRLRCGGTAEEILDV
Kind of assay: Glucosylceramide Synthase (GCS) Assay. Format: biochemical. The settings on record: test compound 10 μM; microsome fraction of Expi293F cells expressing human GCS; 1.7 μM UDP-glucose, 3 μM C8 ceramide; room temperature 60 min; C8 glucosylceramide by Rapidfire MS/MS; read-out: GCS enzyme inhibitory rate at 10 μM (%). The method, then: In enzyme assay, a microsome fraction obtained by transient expression by Expi293F™ cells (catalog number: A14527, Thermo Fisher Scientific) was used as a glucosylceramide synthase source. Liposomal C8 ceramide and UDP-glucose were used as substrates. For each substrate concentration, 1.7 μM UDP-glucose, which is equal to the Km value, and 3 μM C8 ceramide were used. After the enzymatic reaction, the analysis was performed with Rapidfire MS/MS (API-4000™, SCIEX), and C8 glucosylceramide was quantified to evaluate the inhibitory activity of the test compound against glucosylceramide synthase activity.
PcDNA3.3TOPO vector (catalog number: K830001, Thermo Fisher Scientific) into which the human GCS gene was inserted was introduced into Expi293F™ Cells (catalog number: A14527, Thermo Fisher Scientific) by using ExpiFectamine™ 293 Transfection Kit (catalog number: A14525, Thermo Fisher Scientific). The cultured cells were dissolved in D-PBS (catalog number: 048-29805, Fuji Film Wako Pure Chemical Industries, Ltd.) containing 1 mM PMSF, and the solution was allowed to stand on ice for 30 minutes, and then subjected to cell disruption (homogenized). The disruption solution was centrifuged at 10,000×g for 20 minutes at 4° C., and the obtained supernatant was centrifuged at 142,400×g for 60 minutes at 4° C. The obtained precipitate was resuspended in a D-PBS solution containing 1 mM PMSF, and homogenized again to prepare as a microsome fraction. Protein quantification was performed by the CBB method.
A 1 mM compound solution prepared by dissolving the test compound in DMSO was added to a 384-well plate by 100 nL so that the final concentration of the test compound was 10 μM. Next, a substrate solution consisting of 3.4 μM UDP-glucose and 6 μM C8 ceramide was added by 5 μL, followed by an enzyme solution consisting of a 25 μg/mL microsome fraction by 5 μL. C8 ceramide was prepared from liposomes composed of 15 mol % C8 ceramide and 85 mol % dioleoyl phosphatidylcholine (1,2-dioleoyl-sn-glycero-3-phosphocholine: DOPC). The enzymatic reaction was carried out in a solution consisting of 20 mM tris-hydrochloric acid buffer (pH 7.5), 0.01% Tween 20, 0.01% bovine serum albumin and 1 mM dithiothreitol at room temperature for 60 min. Then, a solution consisting of 75% isopropanol and 1% formic acid containing 0.25 μM N-Octadecanoyl-D35-psichosine (catalog number: 1914, Matreya) as an internal standard substance was added by 60 μL to stop the enzymatic reaction. 5 μL of the centrifugal supernatant of the obtained reaction product was analyzed by Rapidfire MS/MS (Agilent Technologies) using API-4000™ (SCIEX), and the C8 glucosylceramide was quantified to evaluate the inhibitory activity of the test compound against the glucosylceramide synthase activity. The inhibitory activity of the test compound was evaluated when the C8 glucosylceramide level in the enzyme-free solution was considered as 100% inhibitory and the enzyme activity of the DMSO group in the absence of the compound was considered as 0% inhibitory.
Consider `CC(C)(O)Cn1cc(C(=O)Nc2ccc(OCC(F)(F)F)cc2)c(=O)c(-c2ccccc2OCC(F)F)n1` [Example 168, 6-[2-(2,2-difluoroethoxy)phenyl]-2-(2-hydroxy-2-methylpropyl)-5-oxo-N-[4-(2,2,2-trifluoroethoxy)phenyl]-2,5-dihydropyridazine-4-carboxamide], for which the inhibition at 10 µM is 96%.

For `CC(C)(C#N)c1ccc(NC(=O)c2cn(C3CC3)nc(-c3ccccc3OCC(F)F)c2=O)cc1` [Example 192, N-[4-(2-cyanopropan-2-yl)phenyl]-2-cyclopropyl-6-[2-(2,2-difluoroethoxy)phenyl]-5-oxo-2,5-dihydropyridazine-4-carboxamide], the inhibition at 10 µM was 100%.

Turning to `CC(C)(O)c1ccc(NC(=O)c2ccnn(-c3ccc(F)cc3OCC(F)(F)F)c2=O)cn1` [Example 112, 2-[4-fluoro-2-(2,2,2-trifluoroethoxy)phenyl]-N-[6-(2-hydroxypropan-2-yl)pyridin-3-yl]-3-oxo-2,3-dihydropyridazine-4-carboxamide], the inhibition at 10 µM came out at 94%. As to `O=C(Nc1ccc(C(O)(C(F)F)C(F)F)nc1)c1cn(C2CC2)nc(-c2ccccc2OCC(F)F)c1=O` [Example 189, 2-cyclopropyl-6-[2-(2,2-difluoroethoxy)phenyl]-5-oxo-N-[6-(1,1,3,3-tetrafluoro-2-hydroxypropan-2-yl)pyridin-3-yl]-2,5-dihydropyridazine-4-carboxamide], the inhibition at 10 µM was determined as 100%.

For the compound `CC(C)(O)c1ccc(NC(=O)c2cn(C(F)F)nc(-c3ccccc3OCC(F)F)c2=O)cc1` [Example 161, 6-[2-(2,2-difluoroethoxy)phenyl]-2-(difluoromethyl)-N-[4-(2-hydroxypropan-2-yl)phenyl]-5-oxo-2,5-dihydropyridazine-4-carboxamide], the inhibition at 10 µM turned out to be 100%. Regarding `CC(C)(O)c1ccc(NC(=O)c2cn(C3COC3)nc(-c3ccccc3OCC(F)F)c2=O)cc1` [Example 183], the inhibition at 10 µM is 100%. With `O=C(Nc1ccc(C(O)(C(F)F)C(F)F)cc1)c1cn(C(F)F)nc(-c2ccccc2OCC(F)F)c1=O` [Example 163, 6-[2-(2,2-difluoroethoxy)phenyl]-2-(difluoromethyl)-5-oxo-N-[4-(1,1,3,3-tetrafluoro-2-hydroxypropan-2-yl)phenyl]-2,5-dihydropyridazine-4-carboxamide] the figure was 100%.

`O=C(Nc1ccn(CC2CC2(F)F)n1)c1cccn(-c2ccc(F)cc2OCC(F)(F)F)c1=O` (racemic) [Example 55, rac-N-{1-[(2,2-difluorocyclopropyl)methyl]-1H-pyrazol-3-yl}-1-[4-fluoro-2-(2,2,2-trifluoroethoxy)phenyl]-2-oxo-1,2-dihydropyridine-3-carboxamide]: the inhibition at 10 µM amounted to 88%. To `O=C(Nc1ccc(OCC(F)(F)F)nc1)c1cncn(-c2ccc(F)cc2OCC(F)(F)F)c1=O` [Example 93, 1-[4-fluoro-2-(2,2,2-trifluoroethoxy)phenyl]-6-oxo-N-[6-(2,2,2-trifluoroethoxy)pyridin-3-yl]-1,6-dihydropyrimidine-5-carboxamide] belongs 99%; to `O=C(Nc1ccc(C(O)(C(F)(F)F)C(F)(F)F)cc1)c1cccn(-c2ccccc2OCC(F)(F)F)c1=O` [Example 89, N-[4-(1,1,1,3,3,3-hexafluoro-2-hydroxypropan-2-yl)phenyl]-2-oxo-1-[2-(2,2,2-trifluoroethoxy)phenyl]-1,2-dihydropyridine-3-carboxamide], 100%; to `COc1cc(F)ccc1-n1nccc(C(=O)Nc2ccc(Oc3ccccc3)cc2)c1=O` [Example 18, 2-(4-fluoro-2-methoxyphenyl)-3-oxo-N-(4-phenoxyphenyl)-2,3-dihydropyridazine-4-carboxamide], 76%. As for `O=C(Nc1ccc(OCC(F)(F)F)nc1)c1ccnn(-c2ccc(F)cc2OCC(F)(F)F)c1=O` [Example 29, 2-[4-fluoro-2-(2,2,2-trifluoroethoxy)phenyl]-3-oxo-N-[6-(2,2,2-trifluoroethoxy)pyridin-3-yl]-2,3-dihydropyridazine-4-carboxamide], the inhibition at 10 µM worked out at 97%.

For the compound `Cn1cc(C(=O)Nc2ccc(C(C)(C)C#N)cc2)c(=O)c(-c2ccccc2OCC(F)F)n1` [Example 172, N-[4-(2-cyanopropan-2-yl)phenyl]-6-[2-(2,2-difluoroethoxy)phenyl]-2-methyl-5-oxo-2,5-dihydropyridazine-4-carboxamide], the inhibition at 10 µM stood at 100%. As for `O=C(Nc1ccc(COCC(F)(F)F)nc1)c1cccn(-c2ccc(F)cc2OCC(F)(F)F)c1=O` [Example 73, 1-[4-fluoro-2-(2,2,2-trifluoroethoxy)phenyl]-2-oxo-N-{6-[(2,2,2-trifluoroethoxy)methyl]pyridin-3-yl}-1,2-dihydropyridine-3-carboxamide], the inhibition at 10 µM amounted to 99%. As to `O=C(Nc1ccc(C(O)(C(F)F)C(F)F)cc1Cl)c1ccnn(-c2ccccc2OCC(F)F)c1=O` [Example 160, N-[2-chloro-4-(1,1,3,3-tetrafluoro-2-hydroxypropan-2-yl)phenyl]-2-[2-(2,2-difluoroethoxy)phenyl]-3-oxo-2,3-dihydropyridazine-4-carboxamide], the inhibition at 10 µM was 100%. With `Cc1cccc(OCC(F)(F)F)c1-n1cccc(C(=O)Nc2ccc(C(C)(C)O)cc2)c1=O` [Example 68, N-[4-(2-hydroxypropan-2-yl)phenyl]-1-[2-methyl-6-(2,2,2-trifluoroethoxy)phenyl]-2-oxo-1,2-dihydropyridine-3-carboxamide] the figure was 97%; with `CC(C)(O)c1ccc(NC(=O)c2cccn(-c3cc(F)ccc3OCC(F)(F)F)c2=O)cc1` [Example 113, 1-[5-fluoro-2-(2,2,2-trifluoroethoxy)phenyl]-N-[4-(2-hydroxypropan-2-yl)phenyl]-2-oxo-1,2-dihydropyridine-3-carboxamide], 98%; with `CC(C)(O)c1ccc(NC(=O)c2ccnn(-c3ccccc3OCC(F)(F)F)c2=O)nc1` [Example 128, N-[5-(2-hydroxypropan-2-yl)pyridin-2-yl]-3-oxo-2-[2-(2,2,2-trifluoroethoxy)phenyl]-2,3-dihydropyridazine-4-carboxamide], 98%. With `CC(C)(O)c1ccc(NC(=O)c2ccnn(-c3ccc(F)cc3OCC(F)(F)F)c2=O)cc1` [Example 95, 2-[4-fluoro-2-(2,2,2-trifluoroethoxy)phenyl]-N-[4-(2-hydroxypropan-2-yl)phenyl]-3-oxo-2,3-dihydropyridazine-4-carboxamide] the figure was 99%; with `N#Cc1cc(F)ccc1-n1cccc(C(=O)Nc2ccc(C(O)(C(F)(F)F)C(F)(F)F)cc2)c1=O` [Example 104, 1-(2-cyano-4-fluorophenyl)-N-[4-(1,1,1,3,3,3-hexafluoro-2-hydroxypropan-2-yl)phenyl]-2-oxo-1,2-dihydropyridine-3-carboxamide], 95%. With `CC(C)(O)Cc1ccc(NC(=O)c2cccn(-c3ccc(F)cc3OCC(F)(F)F)c2=O)cc1` [Example 61, 1-[4-fluoro-2-(2,2,2-trifluoroethoxy)phenyl]-N-[4-(2-hydroxy-2-methylpropyl)phenyl]-2-oxo-1,2-dihydropyridine-3-carboxamide], the inhibition at 10 µM is 95%. For `O=C(Nc1ccc(C2CC2)cn1)c1cccn(-c2ccccc2OCC(F)(F)F)c1=O` [Example 21, N-(5-cyclopropylpyridin-2-yl)-2-oxo-1-[2-(2,2,2-trifluoroethoxy)phenyl]-1,2-dihydropyridine-3-carboxamide], the inhibition at 10 µM was determined as 99%.
